Our source for the IC50 and EC50 values is US7282608B2, “Inhibitors of histone deacetylase” (Methylgene, Inc., priority 2002, dated 2007).

For test [1], the target named is T1, cloned recombinant human HDAC-1 (Homo sapiens, UniProt Q13547).
T1 construct: made in house; host or cells: Baculovirus insect cell expression system
The test is described as follows: Human HDAC-1 Assay 1: [3H]-acetylated histone deacetylase assay. The settings on record: Assay 1, unbracketed data; [3H]-acetylated histone substrate, 10 min at 37° C. The test is classed as biochemical. The method, then: HDAC inhibitors were screened against a cloned recombinant human HDAC-1 enzyme expressed and purified from a Baculovirus insect cell expression system. For deacetylase assays, 20,000 cpm of the [^3H]-metabolically labeled acetylated histone substrate (M. Yoshida et al., J. Biol. Chem. 265(28): 17174–17179 (1990)) was incubated with 30 μg of the cloned recombinant hHDAC-1 for 10 minutes at 37° C. The reaction was stopped by adding acetic acid (0.04 M, final concentration) and HCl (250 mM, final concentration). […] For inhibition studies, the enzyme was preincubated with compounds at 4° C. for 30 minutes prior to initiation of the enzymatic assay. IC50 values for HDAC enzyme inhibitors were determined by performing dose response curves with individual compounds and determining the concentration of inhibitor producing fifty percent of the maximal inhibition. IC50 values for representative compounds assayed using this procedure are presented in the third column of Tables 7–10 (excepting bracketed data).

Another test relates to HCT116 cells. The test is described as follows: MTT assay. The test is classed as cell-based. The settings on record: Homo sapiens, HCT-116, 72 hours. On the procedure:
HCT116 cells (2000/well) were plated into 96-well tissue culture plates one day before compound treatment. Compounds at various concentrations were added to the cells. The cells were incubated for 72 hours at 37° C. in 5% CO2 incubator. MTT (3-[4,5-dimethylthiazol-2-yl]-2,5 diphenyl tetrazolium bromide, Sigma) was added at a final concentration of 0.5 mg/ml and incubated with the cells for 4 hours before one volume of solubilization buffer (50% N,N-dimethylformamide, 20% SDS, pH 4.7) was added onto the cultured cells. After overnight incubation, solubilized dye was quantified by colorimetric reading at […] using a reference at […] using an MR700 plate reader (Dynatech Laboratories Inc.). OD values were converted to cell numbers according to a standard growth curve of the relevant cell line. The concentration which reduces cell numbers to 50% of that of solvent treated cells is determined as MTT IC50. IC50 values for representative compounds are presented in the fourth column of Tables 7–10.
(Tetrazolium dyes change colour on reduction, which living cells bring about.)

The subject of test [2] is acetylated histone H-4 in T24 human bladder cancer cells. The test is described as follows: Histone H4 acetylation in whole cells by immunoblots. The settings on record: 16 h, read-out: H4 Ac (T24) EC50. The test is classed as cell-based. The method, then:
T24 human bladder cancer cells growing in culture were incubated with HDAC inhibitors for 16 h. Histones were extracted from the cells after the culture period as described by M. Yoshida et al. (J. Biol. Chem. 265(28): 17174–17179 (1990)). […] of total histone protein was loaded onto SDS/PAGE and transferred to nitrocellulose membranes. Membranes were probed with polyclonal antibodies specific for acetylated histone H-4 (Upstate Biotech Inc.), followed by horse radish peroxidase conjugated secondary antibodies (Sigma). Enhanced Chemiluminescence (ECL) (Amersham) detection was performed using Kodak films (Eastman Kodak). Acetylated H-4 signal was quantified by densitometry. Representative data are presented in the fifth column of Table 7–10. Data are presented as the concentration effective for […] the acetylated H-4 signal by 50% (EC50).

Like-named read-outs stand apart in the source and are kept apart here.

T1 sequence (Q13547 whole entry): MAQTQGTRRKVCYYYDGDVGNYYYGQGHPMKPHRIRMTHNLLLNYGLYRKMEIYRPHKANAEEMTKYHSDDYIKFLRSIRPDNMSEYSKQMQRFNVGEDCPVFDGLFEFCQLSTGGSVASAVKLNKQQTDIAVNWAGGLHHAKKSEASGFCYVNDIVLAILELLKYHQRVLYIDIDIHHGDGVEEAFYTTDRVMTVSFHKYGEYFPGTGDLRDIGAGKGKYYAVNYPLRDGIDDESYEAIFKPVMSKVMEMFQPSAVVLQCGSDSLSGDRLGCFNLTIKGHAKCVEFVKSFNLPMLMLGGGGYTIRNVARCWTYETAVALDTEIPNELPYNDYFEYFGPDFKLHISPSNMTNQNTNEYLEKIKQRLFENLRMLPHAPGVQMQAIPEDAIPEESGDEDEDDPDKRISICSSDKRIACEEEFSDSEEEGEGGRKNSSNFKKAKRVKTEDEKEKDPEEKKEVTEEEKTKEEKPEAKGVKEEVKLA

A word on the IC50: it is the concentration that inhibits the measured activity by half. The term EC50 denotes the concentration needed to bring the measured effect to its halfway point. Consider `Nc1ccccc1NC(=O)c1ccc(C(=O)/C=C/c2ccc(OC(F)F)c(OC3CC3)c2)cc1` [Ig, N-(2-Amino-phenyl)-4-[3-(3-cyclopropoxy-4-difluoromethoxy-phenyl)-acryloyl]-benzamide], for which the IC50 was 3 µM in test [1] and 700 nM with HCT116 cells. The EC50 in test [2] (code 9999 of the footnote) is over 25000 nM.

Regarding `Nc1ccccc1NC(=O)c1ccc(C(=O)/C=C/c2c(Cl)cccc2Cl)cc1` [Ic, N-(2-Amino-phenyl)-4-[3-(2,6-dichloro-phenyl)-acryloyl]benzamide], the figures for the IC50 (in test [1]; in the test with HCT116 cells) were 3 µM and 400 nM, respectively. Also, the EC50 in test [2] (code 9999 of the footnote) was over 25000 nM.

As to `COc1cc(NC/C=C/c2ccc(C(=O)Nc3ccccc3N)cc2)cc(OC)c1OC` [XVb, N-(2-Amino-phenyl)-4[3-(3,4,5-trimethoxy-phenylamino)-propenyl]-benzamide], the half-inhibitory concentration (IC50) stood at 4 µM in test [1] and 100 nM in the test with HCT116 cells. In test [2] (immunoblot densitometry), the EC50 was found to be 3000 nM.

In the case of `Nc1ccccc1NC(=O)c1ccc(CCC(=O)c2ccccc2)cc1` [XXVIIa, N-(2-Amino-phenyl)-4-(3-oxo-3-phenyl-propyl)-benzamide], the IC50 in test [1] was 2 µM; in the test on HCT116 cells, 600 nM. The EC50 in test [2] (immunoblot densitometry) was determined as 2000 nM.

As for `COc1cc(NC(=O)/C=C/c2ccc(C(=O)Nc3ccccc3N)cc2)cc(OC)c1OC` [Va, N-(2-Amino-phenyl)-4-[2-(3,4,5-trimethoxy-phenylcarbamoyl)-vinyl]-benzamide], the IC50 is 5 µM in test [1] and 3000 nM with HCT116 cells.

Turning to `Nc1ccccc1NC(=O)c1ccc(/C=C/CN2CCN(Cc3ccccc3)CC2)cc1` [XXXb, N-(2-Amino-phenyl)-4-[3-(4-benzyl-piperazin-1-yl)-propenyl]-benzamide], the IC50 turned out to be 4 µM in test [1] and 1000 nM in the test with HCT116 cells. Further, in test [2] (immunoblot densitometry), the EC50 worked out at 2000 nM.

Take `Nc1ccccc1NC(=O)c1ccc(/C=C/CNCc2cccnc2)cc1` [XVh, N-(2-Amino-phenyl)-4-{3-[(pyridin-3-ylmethyl)-amino]propenyl}-benzamide]: the IC50 came out at 4 µM in test [1] and 700 nM in the test with HCT116 cells. The EC50 in test [2] (immunoblot densitometry) stood at 2000 nM.

Regarding `COc1ccccc1C(=O)/C=C/c1ccc(C(=O)Nc2ccccc2N)cc1` [XXIVe, N-(2-Amino-phenyl)-4-[3-(2-methoxy-phenyl)-3-oxo-propenyl]-benzamide], the figures for the IC50 (in test [1]; in the test with HCT116 cells) were 3 µM and 800 nM, respectively. For the same compound, the EC50 in test [2] (immunoblot densitometry) stood at 5000 nM.

In the case of `Nc1ccccc1NC(=O)c1ccc(/C=C/C(=O)NC2Cc3ccccc3C2)cc1` [Vh, N-(2-Amino-phenyl)-4-[2-(indan-2-ylcarbamoyl)-vinyl]-benzamide], the IC50 was found to be 3 µM in test [1] and 1000 nM in the test with HCT116 cells. Also, in test [2] (immunoblot densitometry), the EC50 worked out at 10000 nM.

Take `CC(=O)c1cc2c(cc1NC/C=C/c1ccc(C(=O)Nc3ccccc3N)cc1)OCO2` [XVf]: the IC50 in test [1] turned out to be 3 µM; in the test with HCT116 cells it was 1000 nM. In addition, the EC50 in test [2] (immunoblot densitometry) came out at 2000 nM.

As to `COc1ccc(NC/C=C/c2ccc(C(=O)Nc3ccccc3N)cc2)cc1OC1CCCC1` [XVa, N-(2-Amino-phenyl)-4-[3-(3-cyclopentyloxy-4-methoxy-phenylamino)-propenyl]-benzamide], the IC50 in test [1] turned out to be 2 µM; in the test on HCT116 cells, 1000 nM. Further, the EC50 in test [2] (immunoblot densitometry) was 1000 nM.

Regarding `N#CCCN(Cc1cccnc1)C(=O)/C=C/c1ccc(C(=O)Nc2ccccc2N)cc1` [Vn, N-(2-Amino-phenyl)-4-{2-[(2-cyano-ethyl)-pyridin-3-ylmethyl-carbamoyl]-vinyl}-benzamide], the figures for the IC50 (in test [1]; with HCT116 cells) were 7 µM and 3000 nM, respectively.

`COc1ccc(C(=O)/C=C/c2ccc(C(=O)Nc3ccccc3N)cc2)cc1` [XXIVc, N-(2-Amino-phenyl)-4-[3-(4-methoxy-phenyl)-3-oxo-propenyl]-benzamide]: the IC50 in test [1] came out at 13 µM; in the test on HCT116 cells it was 600 nM. Further, the EC50 in test [2] (immunoblot densitometry) came to 5000 nM.

On to `Nc1ccccc1NC(=O)c1ccc(C(=O)/C=C/c2cc(F)ccc2F)cc1` [Ii, N-(2-Amino-phenyl)-4-[3-(2,5-difluoro-phenyl)-acryloyl]-benzamide], for which the results for the IC50 (in test [1]; in the test with HCT116 cells) were 3 µM and 1000 nM, respectively. Besides, in test [2] (immunoblot densitometry), the EC50 was 3000 nM.

On to `Nc1ccccc1NC(=O)c1ccc(/C=C/C(=O)N[C@H]2c3ccccc3C[C@H]2O)cc1` [Vp, (−)-(1S,2R)-N-(2-Amino-phenyl)-4-[2-(2-hydroxy-indan-1-ylcarbamoyl)-vinyl]-benzamide], for which the IC50 in test [1] is 13 µM; with HCT116 cells it was 2000 nM.

For the compound `COc1cc(/C=C/C(=O)c2ccc(C(=O)Nc3ccccc3N)cc2)cc(OC)c1OC` [Id, N-(2-Amino-phenyl)-4-[3-(3,4,5-trimethoxy-phenyl)-acryloyl]-benzamide], the IC50 was determined as 3 µM in test [1] and 600 nM in the test with HCT116 cells. Besides, in test [2] (immunoblot densitometry), the EC50 was determined as 3000 nM.

For `Nc1ccccc1NC(=O)c1ccc(C(=O)/C=C/c2ccc(Cl)c(Cl)c2)cc1` [Ia, N-(2-Amino-phenyl)-4-[3-(3,4-dichloro-phenyl)-acryloyl]-benzamide], the IC50 stood at 5 µM in test [1] and 1000 nM in the test with HCT116 cells.

`Nc1ccccc1NC(=O)c1ccc(CCCc2ccccc2)cc1` [XXIXa, N-(2-Amino-phenyl)-4-(3-phenyl-propyl)-benzamide]: the IC50 was determined as 2 µM in test [1] and 600 nM in the test on HCT116 cells.

With `Nc1ccccc1NC(=O)c1ccc(/C=C/C(=O)N(Cc2cccnc2)Cc2cccnc2)cc1` [Vo, N-(2-Amino-phenyl)-4-[2-(bis-pyridin-3-ylmethyl-carbamoyl)-vinyl]-benzamide], the IC50 in test [1] came out at 15 µM; in the test on HCT116 cells it was 4000 nM.

Turning to `Nc1ccccc1NC(=O)c1ccc(/C=C/C(=O)N2CCOCC2)cc1` [Ve, N-(2-Amino-phenyl)-4-(3-morpholin-4-yl-3-oxo-propenyl)-benzamide], the results for the IC50 (in test [1]; with HCT116 cells) were 20 µM and 6000 nM, respectively.

As to `Cc1ccc(S(=O)(=O)NC/C=C/c2ccc(C(=O)Nc3ccccc3N)cc2)cc1` [XVg, N-(2-Amino-phenyl)-4-[3-(4-tolyl-sulfonylamino)-propenyl]-benzamide], the IC50 in test [1] is 12 µM; in the test with HCT116 cells it was 5000 nM.

In the case of `Nc1ccccc1NC(=O)c1ccc(/C=C/C(=O)N2CCCC2c2cccnc2)cc1` (racemic) [Vl, (rac)-N-(2-Amino-phenyl)-4-[3-oxo-3-(2-pyridin-3-yl-pyrrolidin-1-yl)-propenyl]-benzamide], the IC50 came to 12 µM in test [1] and 4000 nM in the test with HCT116 cells.

Regarding `COc1cc(OC)c(/C=C/C(=O)c2ccc(C(=O)Nc3ccccc3N)cc2)c(OC)c1` [If, N-(2-Amino-phenyl)-4-[3-(2,4,6-trimethoxy-phenyl)-acryloyl]-benzamide], the IC50 worked out at 4 µM in test [1] and 5000 nM in the test with HCT116 cells.

On to `Nc1ccccc1NC(=O)c1ccc(/C=C/C(=O)OCc2cccnc2)cc1` [Vg, Pyridin-3-ylmethyl 3-[4-(2-amino-phenylcarbamoyl)-phenyl]-acrylic ester], for which the values for the IC50 (in test [1]; with HCT116 cells) were 10 µM and 5000 nM, respectively.

In the case of `Nc1ccccc1NC(=O)c1ccc(C(=O)/C=C/c2ccc(Cl)cc2)cc1` [Ie, N-(2-Amino-phenyl)-4-[3-(4-chloro-phenyl)-acryloyl]-benzamide], the values for the IC50 (in test [1]; in the test with HCT116 cells) were 6 µM and 9000 nM, respectively.

On to `CC(C)(C)OC(=O)N(C/C=C/c1ccc(C(=O)Nc2ccccc2N)cc1)Cc1cccnc1` [XXIIh, t-Butyl {3-[4-(2-amino-phenylcarbamoyl)-phenyl]-ally}-pyridin-3-ylmethyl-carbamate], for which the IC50 in test [1] came to 3 µM; with HCT116 cells, 3000 nM.

In the case of `COc1ccc(C2CCN(C(=O)/C=C/c3ccc(C(=O)Nc4ccccc4N)cc3)CC2)cc1OC` [Vk, N-(2-Amino-phenyl)-4-{3-[4-(3,4-dimethoxy-phenyl)-piperidin-1-yl]-3-oxo-propenyl}-benzamide], the figures for the IC50 (in test [1]; in the test on HCT116 cells) were 13 µM and 2000 nM, respectively.

With `Nc1ccccc1NC(=O)c1ccc(/C=C/C(=O)N2CCN(c3ccccn3)CC2)cc1` [Vm, N-(2-Amino-phenyl)-4-[3-oxo-3-(4-pyridin-2-yl-piperazin-1-yl)-propenyl]-benzamide], the IC50 in test [1] was found to be 11 µM; with HCT116 cells, 6000 nM.
